# Where a SMILES comes first, the peptide text is derived from it.
# What was measured:
# [1] = tested on: parakeratosis and skin roughness caused by oleic acid on the back of hairless mice; assay: Parakeratosis inhibition effect test: oleic acid applied to the back of hairless mice, visual skin roughness and parakeratosis level; assay type: in vivo, hairless mice (HR-1); set-up: key to Evaluation Visual (mean of 4 mice), skin roughness: 0.0 = no roughness, 2.0 = control application; 0.25 steps; details: for Evaluation Parakeratosis (mean of 4 mice): control 2.0; for Evaluation Visual (mean of 4 mice), skin roughness: score 0.0 no roughness, 2.0 control; for effect of inhibiting parakeratosis (conclusion from Table 1) / effect of inhibiting parakeratosis (conclusion from Table 4): hairless mice, oleic acid; for effect of inhibiting parakeratosis (conclusion from Table 1): first embodiment; for effect of inhibiting parakeratosis (conclusion from Table 4): fourth embodiment
# Description: A 3 weight % water solution (including 30 weight % ethanol) was prepared as the evaluation specimen of the glycine derivatives in accordance with the invention 1. The pH was regulated to the range between 7.0 to 7.5, by using hydrochloric acid and sodium hydroxide. When the solubility was low, the solution was adjusted accordingly.
# 100 microliters of 10 weight % oleic acid (solvent: ethanol) was applied to the back of hairless mice (HR-1, Hoshino laboratory animals). Thereafter, 100 microliters of sample solution was applied (glycine derivatives in accordance with said invention 1) at each time. This procedure was repeated for 3 days. The day after the application, the skin condition of the backs was observed by using a CCD camera to evaluate the skin roughness (stratified ablation of the skin surface stratum corneum and red spots). The skin condition was evaluated visually, with scoring the skin condition of control application to 2.0 and the skin condition of no roughness to 0.0, in a 0.25 point step in response to the skin condition. At the same time, the skin surface stratum corneum of the back of hairless mice was peeled off by using a tape for staining the nucleus with haematoxylin to observe the degrees of parakeratosis (parakeratosis level) and evaluate in 0.25 step in the range from 1.0 to 3.0. The higher evaluation points indicates the larger number of parakeratotic corneocytes count, i.e., severer parakeratosis.
# The samples to be evaluated of the glycine derivatives and the salts thereof as well as the aminosulfuric acid derivatives and the salts thereof in accordance with the invention 2 were prepared mainly 3 weight % solution (including 30 weight % ethanol, excluding Hydantoic acid and ACES which include 20 weight % ethanol). pH was regulated by using hydrochloric acid or sodium hydroxide to be 7.0 to 7.5. When the solubility was low, then the solution was prepared accordingly.
# 100 microliters of 10 weight % oleic acid (solvent: ethanol) was applied to the back of Hairless mice (HR-1, Hoshino laboratory animals) Thereafter, 100 microliters of sample solution (glycine derivatives in accordance with the invention 2) was applied thereon at each time. This procedure was repeated for 3 days. The day after the application, the skin condition of the backs was observed by using a CCD camera to evaluate the skin roughness (stratified ablation of the skin surface stratum corneum and red spots). The skin condition was evaluated visually, with scoring the skin condition of control application to 2.0 and the skin condition of no roughness to 0.0, in a 0.25 point step in response to the skin condition. At the same time, the skin surface stratum corneum of the back of hairless mice was peeled off by using a tape for staining the nucleus with haematoxylin to observe the degrees of parakeratosis and evaluate in 0.25 step in the range from 1.0 to 3.0. The higher evaluation points indicates the larger number of parakeratotic corneocytes count, i.e., severer parakeratosis.
# [2] = tested on: skin roughness caused by oleic acid on the back of hairless mice; assay: Inhibitory effect on skin roughness by the application of oleic acid (TEWL value); assay type: in vivo, hairless mice (HR-1); set-up: ΔTEWL: unit not given here; details: for ΔTEWL: after 10 weight % oleic acid, 3 days, four mice per group, control 12.0; for decrease of delta-TEWL value as compared to the control solution (conclusion from Table 6): hairless mice, oleic acid, seventh embodiment
# Description: To study the inhibitory effect on the skin roughness by the application of oleic acid by the glycine derivatives and the salts thereof as well as the aminosulfuric acid derivatives and the salts thereof in accordance with the invention 2, the […] (TEWL value) before and after the application was measured to compare the difference therebetween with the value of control (control solution) in order to determine the effect. The preparation of samples and the application procedure were in accordance with the embodiment 4. The TEWL value was measured by means of TEWA meter TM210 (Courage+Khazaka Inc.).
# 100 microliters of 10 weight % oleic acid (solvent: ethanol) was applied to the back of hairless mice (HR-1, four in each group). Thereafter, 100 microliters of sample solutions (glycine derivatives and the salts thereof as well as the aminosulfuric acid derivatives and the salts thereof) in accordance with the invention 2 were applied at each time. This procedure was repeated for 3 days. The day after the application, TEWL value of the back of mice was measured and the values were averaged. The larger delta-TEWL value indicates severer aggravation of skin roughness.
# [3] = sample 3 weight % in aqueous 30 weight % ethanol, after 10 weight % oleic acid, 3 days, range 1.0 to 3.0, higher = severer
# [4] = sample 3 weight % in aqueous 30 weight % ethanol, after 10 weight % oleic acid, 3 days
# [5] = Table 4, sample 1 weight % in aqueous 30 weight % ethanol (ACES: 20 weight % ethanol), range 1.0 to 3.0
# [6] = Table 4, sample 1 weight % in aqueous 30 weight % ethanol (ACES: 20 weight % ethanol)
# [7] = sample 3 weight %, larger = severer roughness
# [8] = Table 4, sample 3 weight % in aqueous 30 weight % ethanol (hydantoic acid: 20 weight % ethanol), range 1.0 to 3.0, higher = severer
# [9] = Table 4, sample 3 weight % in aqueous 30 weight % ethanol (hydantoic acid: 20 weight % ethanol)
compound,measurement,setting,value
"NCC(N)=O [glycine amide, reference compound]",Evaluation Parakeratosis (mean of 4 mice),[1]; [3],2.1
same,"Evaluation Visual (mean of 4 mice), skin roughness",[1]; [4],1.9
"O=C(O)CNCP(=O)(O)O [phosphomethylglycine, phosphonomethylglycine, reference compound]",ΔTEWL,[2]; sample 1 weight %,11.4
same,Evaluation Parakeratosis (mean of 4 mice),[1]; [5],2.1
same,"Evaluation Visual (mean of 4 mice), skin roughness",[1]; [6],1.9
"NCC(=O)NCC(=O)NCC(=O)O [glycyl-glycylglycine, reference compound] (H-Gly-Gly-Gly-OH)",Evaluation Parakeratosis (mean of 4 mice),"[1]; sample 1 weight % in aqueous 30 weight % ethanol, after 10 weight % oleic acid, 3 days, range 1.0 to 3.0, higher = severer",2.0
same,"Evaluation Visual (mean of 4 mice), skin roughness","[1]; sample 1 weight % in aqueous 30 weight % ethanol, after 10 weight % oleic acid, 3 days",1.9
CC(=O)N[C@@H](CC(=O)O)C(=O)O [N-acetyl-L-aspartic acid],effect of inhibiting parakeratosis (conclusion from Table 1),[1],have the effect of inhibiting parakeratosis
same,Evaluation Parakeratosis (mean of 4 mice),[1]; [3],1.5
same,"Evaluation Visual (mean of 4 mice), skin roughness",[1]; [4],1.4
"O=S(=O)(O)CCCN1CCOCC1 [MOPS, 3-(N-morpholino)propane sulfonic acid, reference compound]",ΔTEWL,[2]; [7],13.2
same,Evaluation Parakeratosis (mean of 4 mice),[1]; [8],2.1
same,"Evaluation Visual (mean of 4 mice), skin roughness",[1]; [9],1.9
same,effect of inhibiting parakeratosis (conclusion from Table 4),[1],effect was not recognized
"O=C(O)CNC(=O)c1ccccc1 [hippuric acid, reference compound]",ΔTEWL,[2]; sample 1 weight %,10.5
same,Evaluation Parakeratosis (mean of 4 mice),[1]; [5],1.9
same,"Evaluation Visual (mean of 4 mice), skin roughness",[1]; [6],1.8
"N=C(N)N1CCC(C(=O)O)CC1 [guanidinoisonipecotinic acid, reference compound]",Evaluation Parakeratosis (mean of 4 mice),[1]; [3],2.2
same,"Evaluation Visual (mean of 4 mice), skin roughness",[1]; [4],2.0
"Cl.NCC(=O)OCc1ccccc1 [glycine benzyl ester HCL, glycine benzyl ester hydrochloride]",effect of inhibiting parakeratosis (conclusion from Table 1),[1],have the effect of inhibiting parakeratosis
same,Evaluation Parakeratosis (mean of 4 mice),[1]; [3],1.2
same,"Evaluation Visual (mean of 4 mice), skin roughness",[1]; [4],1.3
"CC(=O)NCC(=O)O [N-acetylglycine, reference compound]",ΔTEWL,[2]; [7],14.7
same,Evaluation Parakeratosis (mean of 4 mice),[1]; [8],2.0
same,"Evaluation Visual (mean of 4 mice), skin roughness",[1]; [9],1.9
"CCOC(=O)CN.Cl [glycine ethyl ester HCL, glycine ethyl ester hydrochloride]",effect of inhibiting parakeratosis (conclusion from Table 1),[1],have the effect of inhibiting parakeratosis
same,Evaluation Parakeratosis (mean of 4 mice),[1]; [3],1.1
same,"Evaluation Visual (mean of 4 mice), skin roughness",[1]; [4],1.2
"CCCOC(=O)CN.Cl [glycine n-propyl ester HCL, glycine n-propyl ester hydrochloride]",effect of inhibiting parakeratosis (conclusion from Table 1),[1],have the effect of inhibiting parakeratosis
same,Evaluation Parakeratosis (mean of 4 mice),[1]; [3],1.4
same,"Evaluation Visual (mean of 4 mice), skin roughness",[1]; [4],1.4
"O=C(O)CN(CCO)CCO [bicine, reference compound]",ΔTEWL,[2]; [7],12.0
same,Evaluation Parakeratosis (mean of 4 mice),[1]; [8],2.0
same,"Evaluation Visual (mean of 4 mice), skin roughness",[1]; [9],1.9
"O=S(=O)(O)CCNC1CCCCC1 [CHES, 2-(N-cyclohexylamino)ethane sulfonic acid, reference compound]",ΔTEWL,[2]; [7],12.3
same,Evaluation Parakeratosis (mean of 4 mice),[1]; [8],1.9
same,"Evaluation Visual (mean of 4 mice), skin roughness",[1]; [9],1.8
same,effect of inhibiting parakeratosis (conclusion from Table 4),[1],effect was not recognized
"CCOC(=O)CCN.Cl [beta-alanine ethyl ester HCL, beta-alanine ethyl-ester hydrochloride]",effect of inhibiting parakeratosis (conclusion from Table 1),[1],have the effect of inhibiting parakeratosis
same,Evaluation Parakeratosis (mean of 4 mice),[1]; [3],1.2
same,"Evaluation Visual (mean of 4 mice), skin roughness",[1]; [4],1.0
"CN(C)CC(=O)O [N,N-dimethylglycine, reference compound]",ΔTEWL,[2]; [7],15.5
same,Evaluation Parakeratosis (mean of 4 mice),[1]; [8],2.3
same,"Evaluation Visual (mean of 4 mice), skin roughness",[1]; [9],2.1
"O=C(O)CC[C@H](NS(=O)(=O)c1ccccc1)C(=O)O [N-benzenesulfonyl-L-glutamic acid, N-benzene-sulfonyl-L-glutamic acid]",effect of inhibiting parakeratosis (conclusion from Table 1),[1],have the effect of inhibiting parakeratosis
same,Evaluation Parakeratosis (mean of 4 mice),[1]; [3],1.6
same,"Evaluation Visual (mean of 4 mice), skin roughness",[1]; [4],1.6
"CCCCOC(=O)CN.Cl [glycine n-butyl ester HCL, glycine n-butyl ester hydrochloride]",effect of inhibiting parakeratosis (conclusion from Table 1),[1],have the effect of inhibiting parakeratosis
same,Evaluation Parakeratosis (mean of 4 mice),[1]; [3],1.5
same,"Evaluation Visual (mean of 4 mice), skin roughness",[1]; [4],1.6
"C[N+](C)(C)CC(=O)O [betaine, reference compound]",ΔTEWL,[2]; [7],10.6
same,Evaluation Parakeratosis (mean of 4 mice),[1]; [8],1.8
same,"Evaluation Visual (mean of 4 mice), skin roughness",[1]; [9],1.8
"O=C(O)CNC(=O)c1cccnc1 [nicotinoylglycine, N-nicotinoylglycine]",decrease of delta-TEWL value as compared to the control solution (conclusion from Table 6),[2],significant decrease of delta-TEWL value
same,ΔTEWL,[2]; sample 0.1 weight %,7.4
"CCOC(=O)CNC(=O)CN.Cl [glycylglycine ethyl ester HCL, glycylglycine ethyl ester hydrochloride salt]",decrease of delta-TEWL value as compared to the control solution (conclusion from Table 6),[2],significant decrease of delta-TEWL value
same,ΔTEWL,[2]; [7],6.7
same,Evaluation Parakeratosis (mean of 4 mice),[1]; [8],1.1
same,"Evaluation Visual (mean of 4 mice), skin roughness",[1]; [9],1.3
same,effect of inhibiting parakeratosis (conclusion from Table 4),[1],have the effect of inhibiting parakeratosis
O=C(O)CC[C@H](NC(=O)c1ccccc1)C(=O)O [N-benzoyl-L-glutamic acid],effect of inhibiting parakeratosis (conclusion from Table 1),[1],have the effect of inhibiting parakeratosis
same,Evaluation Parakeratosis (mean of 4 mice),[1]; [3],1.6
same,"Evaluation Visual (mean of 4 mice), skin roughness",[1]; [4],1.7
"O=C(O)CN(CC(=O)O)CC(=O)O [nitrilotriacetate, nitrilotriacetic acid, reference compound]",ΔTEWL,[2]; sample 0.4 weight %,11.5
same,Evaluation Parakeratosis (mean of 4 mice),"[1]; Table 4, sample 0.4 weight % in aqueous 30 weight % ethanol, range 1.0 to 3.0",2.0
same,"Evaluation Visual (mean of 4 mice), skin roughness","[1]; Table 4, sample 0.4 weight % in aqueous 30 weight % ethanol",1.9
"O=C1CNC(=O)N1 [hydantoin, reference compound]",ΔTEWL,[2]; sample 1 weight %,17.6
same,Evaluation Parakeratosis (mean of 4 mice),[1]; [5],2.0
same,"Evaluation Visual (mean of 4 mice), skin roughness",[1]; [6],2.1
same,effect of inhibiting parakeratosis (conclusion from Table 4),[1],did not exhibit such effect
"CC(C)(C)OC(=O)CN.Cl [glycine t-butyl ester HCL, glycine t-butyl ester hydrochloride]",effect of inhibiting parakeratosis (conclusion from Table 1),[1],have the effect of inhibiting parakeratosis
same,Evaluation Parakeratosis (mean of 4 mice),[1]; [3],1.5
same,"Evaluation Visual (mean of 4 mice), skin roughness",[1]; [4],1.6
"O=C(O)C1CCNCC1 [isonipecotinic acid, isonipecotic acid]",effect of inhibiting parakeratosis (conclusion from Table 1),[1],have the effect of inhibiting parakeratosis
same,Evaluation Parakeratosis (mean of 4 mice),[1]; [3],1.5
same,"Evaluation Visual (mean of 4 mice), skin roughness",[1]; [4],1.6
